Experimental data from PubChem BioAssay AID2060506 (Molecular Pharmacology Branch, DTP, NCI, 2025).
Several values for one entry are separate records, joined by “and”; a condition that tells them apart may be missing. Equal values may be shown once. Values belong to the compound of their own block, whether it stands above or below them.

Tested on: 598228-144-R-J1-PDC complex spheroid viability
Assay: Anticancer human tumor 598228-144-R-J1-PDC patient-derived serous endometrial adenocarcinoma cell line growth inhibition [GQUAD]
Conditions: for viability, T/C: stronger effect = lower value
Description: DNA G-quadruplex Stabilizer Agents in Combinations in Complex Spheroids
A high-throughput screen of multi-cell type tumor spheroids was designed to identify active combinations of DNA G-quadruplex stabilizer agents and targeted small molecules. Complex spheroids include a stromal component modeled by human endothelial cells (HUVEC) and fibroblasts modeled by human mesenchymal stem cells (MSCs). The concentration ranges selected for each drug and investigational agent were based upon clinically achievable concentrations if the clinical Cmax of the agent was known.
Compounds. The drugs and investigational agents: pidnarulex (CX-5461; NSC782164), APTO-253 (NSC789042), BRACO-19 (NSC847499), peposertib (NSC802822), ceralasertib (NSC780249), elimusertib (NSC800525), camonsertib (NSC841442), AZD-1390 (NSC803789), olaparib (NSC753686), talazoparib (NSC767125), ART-558 (NSC835418), sotorasib (NSC818433), MRTX-1133 (NSC836407), SN-38 (NSC673596), topotecan (NSC609699), etoposide (NSC141540), doxorubicin (NSC123127), gemcitabine (NSC613327), 5-fluorouracil (NSC19893), paclitaxel (NSC125973), vemurafenib (NSC761431), panobinostat (NSC761190), R-306465 (JNJ-16241199; NSC773264), adavosertib (NSC754352), TP-3654 (NSC805149), carboplatin (NSC241240), KSQ-4279 (NSC840948), and staurosporine (NSC755774) were obtained from the National Cancer Institute (NCI) Developmental Therapeutics Program Chemical Repository (34). The FDA-approved anticancer drug set is available from the NCI Developmental Therapeutics Program. […] The stock solutions were prepared in dimethyl sulfoxide (DMSO, Sigma-Aldrich, St. Louis, MO, cat. D2650) at 800-fold the tested concentration and stored at -70 degrees C prior to their use. All drugs and investigational agents were tested over a range starting from a high concentration at or near the clinical Cmax and decreasing in half-log increments. If the clinical Cmax for an agent had not been determined, the highest concentration tested was 10 microM.
2.3 Cell Culture. All cells were maintained in an incubator at 37 degrees C and 5% CO2 with 95% humidity. The PDC lines were cultured according to standard operating procedures established by the NCI PDMR. All PDCs were thawed and cultured in Matrigel-coated flasks prepared with a working solution of 1X Ham's F-12 nutrient mix, without supplementation (Invitrogen, cat. 11765054), 100 U/mL penicillin-streptomycin (Invitrogen, cat. 15140122), and 2.5% Matrigel (Corning Inc., cat. 354248) for the first three passages. The 857933-349-R-J2-PDC line was cultured in 6C/Colon 1B media, which includes advanced DMEM/F-12 (Thermo Fisher Scientific, cat. 12634028), 10 mM HEPES (Thermo Fisher Scientific, cat. 15630080), 1X GlutaMAX supplement (Thermo Fisher Scientific, cat. 35050061), 0.1 mg/mL primocin (InvivoGen, cat. ant-pm-2), 10% defined fetal bovine serum, heat inactivated (HyClone Laboratories Inc., cat. SH30070.03HI), 50% L-WRN conditioned media (ATCC, cat. CRL-3276), 1.25 mM N-Acetyl-L-cysteine (Sigma-Aldrich, cat. A9165), 10 mM nicotinamide (Sigma-Aldrich, cat. N0636), 1X B-27 supplement (Thermo Fisher Scientific, cat. 17504044), 1X N-2 supplement (Thermo Fisher Scientific, cat. 17502048), 10 microM Y-27632 dihydrochloride (Tocris Bioscience, cat. 1254), and 50 ng/mL human EGF recombinant protein (Thermo Fisher Scientific, cat. PHG0311). The 485176-168-R4-J1-PDC line was cultured in Panc media, which includes all 6C/Colon 1B media components plus 100 ng/mL human FGF-10 (Thermo Fisher Scientific, cat. 100-26), 500 nM SB-431542 (Selleckchem, cat. S1067), and gastrin (Tocris, cat. 3006).
[…]

[1] = curve of first compound, second compound 0.0316 µM
[2] = curve of first compound, second compound 0.1 µM
[3] = curve of first compound, second compound 0.316 µM
[4] = curve of first compound, second compound 1 µM
[5] = curve of first compound, second compound 3.16 µM
[6] = curve of first compound, second compound 10 µM
[7] = second compound 0.0316 µM, first compound 0.0316 µM
[8] = second compound 0.0316 µM, first compound 0.1 µM
[9] = second compound 0.0316 µM, first compound 0.316 µM
[10] = second compound 0.0316 µM, first compound 1 µM
[11] = second compound 0.0316 µM, first compound 3.16 µM
[12] = second compound 0.0316 µM, first compound 10 µM
[13] = second compound 0.1 µM, first compound 0.0316 µM
[14] = second compound 0.1 µM, first compound 0.1 µM
[15] = second compound 0.1 µM, first compound 0.316 µM
[16] = second compound 0.1 µM, first compound 1 µM
[17] = second compound 0.1 µM, first compound 3.16 µM
[18] = second compound 0.1 µM, first compound 10 µM
[19] = second compound 0.316 µM, first compound 0.0316 µM
[20] = second compound 0.316 µM, first compound 0.1 µM
[21] = second compound 0.316 µM, first compound 0.316 µM
[22] = second compound 0.316 µM, first compound 1 µM
[23] = second compound 0.316 µM, first compound 3.16 µM
[24] = second compound 0.316 µM, first compound 10 µM
[25] = second compound 1 µM, first compound 0.0316 µM
[26] = second compound 1 µM, first compound 0.1 µM
[27] = second compound 1 µM, first compound 0.316 µM
[28] = second compound 1 µM, first compound 1 µM
[29] = second compound 1 µM, first compound 3.16 µM
[30] = second compound 1 µM, first compound 10 µM
[31] = second compound 3.16 µM, first compound 0.0316 µM
[32] = second compound 3.16 µM, first compound 0.1 µM
[33] = second compound 3.16 µM, first compound 0.316 µM
[34] = second compound 3.16 µM, first compound 1 µM
[35] = second compound 3.16 µM, first compound 3.16 µM
[36] = second compound 3.16 µM, first compound 10 µM
[37] = second compound 10 µM, first compound 0.0316 µM
[38] = second compound 10 µM, first compound 0.1 µM
[39] = second compound 10 µM, first compound 0.316 µM
[40] = second compound 10 µM, first compound 1 µM
[41] = second compound 10 µM, first compound 3.16 µM
[42] = second compound 10 µM, first compound 10 µM
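Further: spheroids exposed to the agents for one week before reading.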
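Wherever viability, T/C is given: percent of vehicle DMSO control viability so 100% = untreated growth.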

SMILES: CC1COCCN1c1cc(-c2ccnn2C)c2ccnc(-c3ccn[nH]3)c2n1 (stereo unspecified) + CN(C)c1ccc(Nc2c3ccc(NC(=O)CCN4CCCC4)cc3nc3cc(NC(=O)CCN4CCCC4)ccc23)cc1
- IC50 [1]: 87.9 nM
- IC50 [2]: 88.2 nM
- IC50 [3]: 93.5 nM
- IC50 [4]: 721 nM
- IC50 [5]: 114 nM
- IC50 [6]: 58.1 nM
- viability, T/C [7]: 86%
- viability, T/C [8]: 45.6%
- viability, T/C [9]: 40.3%
- viability, T/C [10]: 43.3%
- viability, T/C [11]: 49.2%
- viability, T/C [12]: 45.2%
- viability, T/C [13]: 79.7%
- viability, T/C [14]: 46.1%
- viability, T/C [15]: 45.5%
- viability, T/C [16]: 40.5%
- viability, T/C [17]: 42.4%
- viability, T/C [18]: 43.5%
- viability, T/C [19]: 76.3%
- viability, T/C [20]: 51.3%
- viability, T/C [21]: 32.7%
- viability, T/C [22]: 43.9%
- viability, T/C [23]: 45.5%
- viability, T/C [24]: 34.6%
- viability, T/C [25]: 70.6%
- viability, T/C [26]: 63.8%
- viability, T/C [27]: 50.5%
- viability, T/C [28]: 50%
- viability, T/C [29]: 45.7%
- viability, T/C [30]: 38.9%
- viability, T/C [31]: 74.6%
- viability, T/C [32]: 49.6%
- viability, T/C [33]: 40%
- viability, T/C [34]: 40.6%
- viability, T/C [35]: 43.4%
- viability, T/C [36]: 25.9%
- viability, T/C [37]: 73.5%
- viability, T/C [38]: 29.5%
- viability, T/C [39]: 20.5%
- viability, T/C [40]: 29.7%
- viability, T/C [41]: 27.6%
- viability, T/C [42]: 14.9%

- IC50 (curve of compound): 2200 nM and 1870 nM and 1730 nM
SMILES: CC(C)(O)C1CCC(Nc2ccc3ncc(-c4cccc(C(F)(F)F)c4)n3n2)CC1 (stereo unspecified)
- viability, T/C (compound 0.0316 µM): 112% and 97.2% and 85.6%
- viability, T/C (compound 0.1 µM): 104% and 82.3% and 99.3%
- viability, T/C (compound 0.316 µM): 99.6% and 94.8% and 96.7%
- viability, T/C (compound 1 µM): 94% and 78.5% and 75.3%
- viability, T/C (compound 3.16 µM): 28% and 26.1% and 20.6%
- viability, T/C (compound 10 µM): 31.7% and 25.3% and 24.3%

- IC50 [1]: 8280 nM
- IC50 [2]: 793 nM
- IC50 [3]: 3550 nM
- IC50 [4]: 2620 nM
- IC50 [5]: < 31.6 nM
- IC50 [6]: < 31.6 nM
SMILES: CC(C)n1c(=O)n(C)c2cnc3cc(F)c(-c4ccc(OCCCN5CCCCC5)nc4)cc3c21 + Cc1cnc(CNC(=O)c2c(=O)c3ccc(N4CCCN(C)CC4)nc3n3c2sc2ccccc23)cn1
- viability, T/C [7]: 58.2%
- viability, T/C [8]: 78.2%
- viability, T/C [9]: 77.8%
- viability, T/C [10]: 63.1%
- viability, T/C [11]: 62.8%
- viability, T/C [12]: 47.5%
- viability, T/C [13]: 70.2%
- viability, T/C [14]: 57.9%
- viability, T/C [15]: 53.4%
- viability, T/C [16]: 44.3%
- viability, T/C [17]: 61.3%
- viability, T/C [18]: 36.8%
- viability, T/C [19]: 52.1%
- viability, T/C [20]: 50.3%
- viability, T/C [21]: 55.1%
- viability, T/C [22]: 48.8%
- viability, T/C [23]: 52.1%
- viability, T/C [24]: 36%
- viability, T/C [25]: 53.2%
- viability, T/C [26]: 59.2%
- viability, T/C [27]: 59.6%
- viability, T/C [28]: 56.5%
- viability, T/C [29]: 47.5%
- viability, T/C [30]: 28.1%
- viability, T/C [31]: 50.4%
- viability, T/C [32]: 46%
- viability, T/C [33]: 48.3%
- viability, T/C [34]: 50.5%
- viability, T/C [35]: 38.1%
- viability, T/C [36]: 3.5%
- viability, T/C [37]: 40.7%
- viability, T/C [38]: 36.6%
- viability, T/C [39]: 39.1%
- viability, T/C [40]: 29.9%
- viability, T/C [41]: 25%
- viability, T/C [42]: 0.34%

- IC50 (compound alone, run of 03/18/2024): > 10000 nM and 3620 nM
- IC50 (compound alone, run of 03/26/2024): > 10000 nM
SMILES: Cc1[nH]c2ccc(F)cc2c1-c1nc2c3cccnc3c3ncccc3c2[nH]1
- viability, T/C (compound 0.0316 µM): 99.3% [middle of 12 runs]
- viability, T/C (compound 3.16 µM): 46.7% [middle of 12 runs]
- viability, T/C (compound 10 µM): 68.5% [middle of 12 runs]
